Test results as given in ChEMBL document CHEMBL1201862, “PubChem BioAssay data set” (2004).
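Grown in 96-well plates, cells were treated for 48 hours with each compound at five concentrations. Insufficient inhibition: endpoint recorded as highest concentration tested. The concentration for 50% growth inhibition is given as GI50.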 Activity calls are given as the source filed them. Cut-off read from the data, not from the text of the source: active = GI50 up to about 1.1 µM and inactive = higher. Where a SMILES comes first, the peptide text is derived from it. [ ]: non-standard residue; d: D form. Aoe = N[C@@H](CCCCCC(=O)[C@@H]1CO1)C(=O)O

Experiments:
Assay in all cases: inhibition of tumour cell growth, NCI panel, 48 h
[1] = tested on: BT-549
[2] = tested on: M19-MEL
[3] = tested on: HOP-18
[4] = tested on: DMS-273
[5] = tested on: KM-20L2
[6] = tested on: LXFL 529
[7] = tested on: DLD-1
[8] = tested on: XF498

Structure (SMILES): O=C(O)CCCc1ccc2c(c1)C(C(=O)O)CC2 (centres undefined)
- GI50 [1]: 76 µM (inactive)

Structure (SMILES): CC/C=C/c1cc2c(c3[nH]ccc13)[C@@H](C)CC2C.CC/C=C/c1cc2cc[nH]c2c2c1C(C)C[C@@H]2C.CCc1cc2c(c3[nH]ccc13)[C@@H](C)CC2C (some centres undefined)
- GI50 [2]: 18.3 µM (inactive)
- GI50 [3]: 13.5 µM (inactive)
- GI50 [4]: 15.4 µM (inactive)
- GI50 [5]: 14.8 µM (inactive)
- GI50 [6]: 16.4 µM (inactive)
- GI50 [7]: 13.5 µM (inactive)

Structure (SMILES): COC1OC(CBr)C(OC(c2ccccc2)(c2ccccc2)c2ccccc2)C(OC(c2ccccc2)(c2ccccc2)c2ccccc2)C1OC(c1ccccc1)(c1ccccc1)c1ccccc1 (centres undefined)
- GI50 [1]: 56.9 µM (inactive)

Structure (SMILES): [O-][S+](Cc1cc2c(cc1Br)OCO2)c1ccccc1 (centres undefined)
- GI50 [2]: 44.5 µM (inactive)
- GI50 [3]: 41.3 µM (inactive)
- GI50 [4]: 58.9 µM (inactive)
- GI50 [5]: 71.4 µM (inactive)
- GI50 [6]: 44 µM (inactive)
- GI50 [7]: 24.2 µM (inactive)

Structure (SMILES): O=C(Nc1c(Cl)cc([N+](=O)[O-])cc1Cl)C(=O)C1C(=O)NC(=S)NC1=O
- GI50 [1]: > 100 µM (inactive)

Structure (SMILES): CCOC(=O)C(Br)(C(N)=O)C1(O)OC(c2ccccc2)=C(Br)C1=O (centres undefined)
- GI50 [1]: 19.2 µM (inactive)

Structure (SMILES): COc1cc(Cn2c3c(c4cc(O)ccc42)C(=O)c2ccccc2C3=O)cc(OC)c1
- GI50 [1]: 1.82 µM (inactive)

Structure (SMILES): O=C(Cc1ccccc1)Nn1c(-c2ccccc2)nc2ccccc2c1=O
- GI50 [1]: > 100 µM (inactive)

Structure (SMILES): Cc1ccc(S(=O)(=O)O)cc1.c1cc2c(c(NC3=NCCN3)c1)CCCC2
- GI50 [1]: > 100 µM (inactive)

Structure (SMILES): Oc1ccc(/N=C/c2ccc(/C=N/c3ccc(O)cc3)cc2)cc1
- GI50 [1]: 17.4 µM (inactive)

Structure (SMILES): CCNC(=O)Cc1nc2c(N)ncnc2n1C1OC(CO)C(O)C1O (centres undefined)
- GI50 [1]: > 100 µM (inactive)

Structure (SMILES): CC1CCC2[C@@H](C)COC3O[C@]4(C)CCC1C32OO4 (some centres undefined)
- GI50 [3]: > 100 µM (inactive)
- GI50 [4]: > 100 µM (inactive)
- GI50 [5]: > 100 µM (inactive)
- GI50 [6]: 77.1 µM (inactive)
- GI50 [7]: > 100 µM (inactive)

Structure (SMILES): CCOC(=O)C(C)Sc1nnc(COc2ccccc2OC)n1-c1ccccc1 (centres undefined)
- GI50 [2]: > 100 µM (inactive)
- GI50 [3]: 77.4 µM (inactive)
- GI50 [4]: > 100 µM (inactive)
- GI50 [5]: > 100 µM (inactive)
- GI50 [6]: 28.8 µM (inactive)
- GI50 [7]: 37.2 µM (inactive)

Structure (SMILES): O=C(CSc1nc(O)nc2[nH]cnc12)Nc1ccccc1
- GI50 [1]: 46.9 µM (inactive)

Structure (SMILES): NP(=O)(OCC1=CC(=O)c2ccccc2C1=O)N(CCBr)CCBr (centres undefined)
- GI50 [1]: 2.09 µM (inactive)

Structure (SMILES): Cc1ccc(-n2cc([Si](C)(C)C)nn2)s1
- GI50 [1]: > 100 µM (inactive)

Structure (SMILES): CC1(C)[C@@H]2C[C@H]1C(Cc1cccc(C[C@H]3c4cc(-c5ccccn5)ncc4[C@H]4C[C@@H]3C4(C)C)c1)c1cc(-c3ccccn3)ncc12 (some centres undefined)
- GI50 [1]: 5.06 µM (inactive)

Structure (SMILES): CC(=O)OC1O[C@@H](C(C)(C)O)CC[C@@H]1[C@H]1CC[C@@]2(C)C3=C(CC[C@]12C)[C@@]1(C)C[C@@H](OC(=O)CC(C)(O)CC(=O)O)[C@H](OC(C)=O)C(C)(C)C1CC3 (some centres undefined)
- GI50 [1]: 15.8 µM (inactive)

Structure (SMILES): CCCCCCCC(=O)OCC1OC(n2cc(F)c(=O)[nH]c2=O)C(N)C(OC(=O)CCCCCCC)C1O (centres undefined)
- GI50 [2]: 20.2 µM (inactive)
- GI50 [4]: 16.6 µM (inactive)
- GI50 [5]: 18.9 µM (inactive)
- GI50 [6]: 17.1 µM (inactive)

Structure (SMILES): C=CCN1C[C@H](C)N([C@H](c2ccc(C(=O)NC(CC)CC)cc2)c2cccc(OC)c2)C[C@H]1C
- GI50 [1]: 29.1 µM (inactive)

Structure (SMILES): COc1ccc2cc3n(c(=O)c2c1)CCc1c-3cc(OC)c(OC)c1OC
- GI50 [2]: > 100 µM (inactive)
- GI50 [3]: > 100 µM (inactive)
- GI50 [8]: 50.7 µM (inactive)
- GI50 [4]: > 100 µM (inactive)
- GI50 [5]: > 100 µM (inactive)
- GI50 [6]: > 100 µM (inactive)
- GI50 [7]: > 100 µM (inactive)

Structure (SMILES): CC(=O)N1C(Nc2ccccn2)CCN1c1ccccc1 (centres undefined)
- GI50 [1]: > 10 µM (inactive)

Structure (SMILES): c1cc(C[S+]2CCCC2)ccc1C[S+]1CCCC1
- GI50 [1]: > 100 µM (inactive)

Structure (SMILES): O=C(Nc1ccccc1)c1cc(S(=O)(=O)Nc2nc3cccnc3[nH]2)c(SSc2cc(Cl)c(C(=O)Nc3ccccc3)cc2S(=O)(=O)Nc2nc3cccnc3[nH]2)cc1Cl
- GI50 [1]: > 100 µM (inactive)

Structure (SMILES): CC(=O)OCc1ncccc1C(OC(C)=O)OC(C)=O
- GI50 [2]: > 100 µM (inactive)
- GI50 [3]: > 100 µM (inactive)
- GI50 [8]: > 100 µM (inactive)
- GI50 [4]: > 100 µM (inactive)
- GI50 [5]: > 100 µM (inactive)
- GI50 [6]: > 100 µM (inactive)
- GI50 [7]: > 100 µM (inactive)

Structure (SMILES): CC(=O)OC1C(C)OC(OC(=O)C2CCC3C(C2)OC2(CC(OC(=O)/C=C/c4ccccc4)C(C)CO2)C32CO2)C(OC2OC(C)C(O)C(OC(C)=O)C2O)C1O (centres undefined)
- GI50 [1]: < 0.01 µM (active)

Structure (SMILES): Cc1ccc([N+](=O)[O-])cc1S(=O)(=O)Nc1ccc(C2=NN(C(=O)c3ccccc3)C(c3cccs3)C2)cc1 (centres undefined)
- GI50 [1]: 25.3 µM (inactive)

Structure (SMILES): COc1ccc(C(=O)c2c(C(C(=O)c3ccc(OC)cc3)C(=O)c3ccc(OC)cc3)n(C(=O)c3ccc(OC)cc3)c3ccccc23)cc1
- GI50 [2]: > 100 µM (inactive)
- GI50 [8]: > 100 µM (inactive)
- GI50 [4]: > 100 µM (inactive)
- GI50 [5]: > 100 µM (inactive)
- GI50 [6]: > 100 µM (inactive)
- GI50 [7]: > 100 µM (inactive)

Structure (SMILES): CC(=O)Oc1ccc(C)c2c1[C@H]1CC[C@]3(C)[C@@H](OC(C)=O)CC[C@H]3[C@@H]1CC2
- GI50 [1]: 17.5 µM (inactive)

Structure (SMILES): COc1cc2ccc(/C=C\[N+](=O)[O-])cc2cc1OC
- GI50 [1]: 2.32 µM (inactive)

Structure (SMILES): CN(C)CCNC(=O)c1cccc2c1Oc1cccc([N+](=O)[O-])c1O2
- GI50 [1]: 13.3 µM (inactive)

Structure (SMILES): CN(C)CCCN1c2ccccc2CCc2cccc([N+](=O)[O-])c21
- GI50 [1]: 25.9 µM (inactive)

Structure (SMILES): COc1ccc(C2=NNC(c3cc4cc(Br)ccc4nc3Cl)C2)cc1 (centres undefined)
- GI50 [1]: 14.5 µM (inactive)

Structure (SMILES): O=C1c2ccccc2-c2c1c1ccccc1c(=O)n2CCO
- GI50 [1]: 18.5 µM (inactive)

Structure (SMILES): CC(=O)OC1COC(Nc2nc(N)n(C)c(=O)c2N=O)C(OC(C)=O)C1OC(C)=O (centres undefined)
- GI50 [1]: > 10 µM (inactive)

Structure (SMILES): COc1ccccc1NC1Oc2cc3c(cc2C(c2cc(OC)c(OC)c(OC)c2)C1C)OCO3 (centres undefined)
- GI50 [1]: 2.84 µM (inactive)

Structure (SMILES): Cc1[nH]n(-c2ncc(C(=O)O)c(=O)[nH]2)c(=O)c1CCO
- GI50 [1]: > 100 µM (inactive)

Structure (SMILES): Cc1ccc(S(=O)(=O)NC(=O)NS(=O)(=O)O)cc1
- GI50 [1]: > 100 µM (inactive)

Structure (SMILES): O=C1c2cc(I)ccc2N2CCN=C2N1Cc1ccccc1
- GI50 [1]: 49.9 µM (inactive)

Structure (SMILES): NC1OC(COC(=O)c2ccccc2)C(O)C(OC(=O)c2ccccc2)C1OC(=O)c1ccccc1 (centres undefined)
- GI50 [1]: 20.7 µM (inactive)

Structure (SMILES): O=c1cc(N2CCCC2)[nH]c(=O)n1-c1cccc(Cl)c1
- GI50 [1]: > 100 µM (inactive)

Structure (SMILES): CN1C/C(=C\c2cccs2)C2=NC(=S)NC(c3cccs3)C2C1 (centres undefined)
- GI50 [1]: 46.1 µM (inactive)

Structure (SMILES): c1ccc(CNCCCCNCCCNCc2ccccc2)cc1
- GI50 [1]: 16.3 µM (inactive)

Structure (SMILES): CN(C)CCN(c1ccccn1)c1ccccn1
- GI50 [1]: > 100 µM (inactive)

Structure (SMILES): O=C1/C(=N/CCc2cc(Br)c(O)c(Br)c2)C=C(O)c2cccnc21
- GI50 [1]: 1.37 µM (inactive)

Structure (SMILES): O=C1N[C@@H](Cc2ccccc2)C(=O)N2CCC[C@@H]2C(=O)N[C@@H](CCCCCC(=O)[C@@H]2CO2)C(=O)N[C@H]1Cc1ccccc1 [TRAPOXIN B] (cyclo(FF[dP][Aoe]))
- GI50 [1]: 0.389 µM (active)

Structure (SMILES): CN(C)CCN1CCc2c([nH]c3ccccc23)C1c1cccnc1 (centres undefined)
- GI50 [2]: > 100 µM (inactive)
- GI50 [3]: > 100 µM (inactive)
- GI50 [4]: > 100 µM (inactive)
- GI50 [5]: > 100 µM (inactive)
- GI50 [7]: > 100 µM (inactive)

Structure (SMILES): Cc1cccc2c1Oc1cc(Cl)ccc1C2NC(=O)CCN1CCOCC1 (centres undefined)
- GI50 [1]: > 100 µM (inactive)

Structure (SMILES): CCc1nc(N)nc(N)c1-c1ccc([N+](C)(C)C)cc1
- GI50 [1]: > 100 µM (inactive)

Structure (SMILES): CC1(c2ccc(Cl)s2)CC(c2ccc(Cl)s2)=C(C#N)C(=C(C#N)C#N)N1 (centres undefined)
- GI50 [1]: 20.9 µM (inactive)

Structure (SMILES): COC(=O)c1c(-c2ccc(Cl)cc2)cc2c3ccccc3n(C)c2c1C(=O)OC
- GI50 [1]: > 100 µM (inactive)
